US20240327423A1, “A SERIES OF PYRROLE DERIVATIVES AND THEIR PREPARATION METHOD AND THERAPEUTIC USE” (SHENZHEN SUNGENING BIO-MEDICAL CO., LTD, priority 2020, published 2024)
In brackets after ≈: the same amount, converted by molar mass.

Assays:
[1] = tested on: Aspergillus fumigatus (ATCC-204305); assay: Measurement of minimum inhibitory concentration (MIC), ATCC 204305; type: cell-based; conditions: ATCC204305; Aspergillus fumigatus ATCC 204305, 35° C., 48 hours
Protocol: New streaks are made with glycerol stock solution of the strains of Aspergillus [NT] MYA-4609/AF 293/CBS 101355) on Sabouraud's dextrose agar (SDA), incubate at 35° C. and a humidity of 40-70% for 72 hours. Other strains are processed as the same as AF293. RPMI1640: one packet of RPMI1640 powder is dissolved in 1 L purified water and mixed well, add 0.165M MOPS, adjust the pH to 7.0, sterilize by filtration with 0.22 um membrane, and store at 4° C. for no more than 3 months. Physiological saline: weigh 9 g of sodium chloride powder and dissolve in 1 L of purified water, and mixed well. […] Dissolve the test compound and stock solution of one control compound with DMSO and obtain solutions at a concentration of 12.8 mg/mL The maximum concentration of each compound is 0.8 mg/mL (e.g., 150 μL of dimethyl sulfoxide+10 uL of 12.8 mg/mL compound/control). […] Repeat the above steps up to column 11 to give 2× serial dilutions. 2 μL of the above 2× serial dilutions are injected into each hole of the corresponding test plate using a multichannel pipette. Drop 5 ml of saline on the Aspergillus fumigatus SDA plate. The spores were carefully wiped off from the surface of the plate with an L-shaped coating rod. Then the suspension is transferred into a sterile tube. After shaking, let the tube stand for 5 to 10 minutes. Count the number of spores in the upper suspension with a hemocytometer and check the purity. Adjust the inoculum concentration to 0.2-2.5×10^4 spores/mL. Inject 198 μL of diluted inoculum into each holes of the corresponding test plate using a multichannel pipette. Incubate at 35° C. for 48 hours. […] To facilitate scoring of the presence or absence of growth on the wall, a magnifying glass is used. The tested 96-well microplates were photographed and the optical density at 530 nm is read with an enzyme marker (Tecan Spark).

[2] = Liver microsomal stability test, human; type: in vitro ADME; conditions: Human liver microsomes; for CLint scaled / half-life: 0.5 mg/mL protein, 37° C., NADPH
[3] = tested on: Aspergillus fumigatus ATCCMYA-4690 (AF293); assay: Survival rate experiment I of mouse bloodstream infection model with Aspergillus fumigatus; type: in vivo; conditions: immunosuppressed male CD-1 mouse; for survival time of mouses: 3 mg/kg orally twice daily; for day 7 survival rate: 3 mg/kg orally twice daily for 6 days, started 24 hours after infection
Protocol: Test Case 5: Survival Rate Experiment I of Mouse Bloodstream Infection Model with Aspergillus fumigatus • Experimental animals: male CD-1 mouse, 6-8 weeks old, 10 animals per group. • Induction of immunosuppression: the day of infection is defined as day 0, and mouses are injected intraperitoneally with corresponding doses of cyclophosphamide on day −4 (150 mg/kg), day −1 (100 mg/kg) and day 2 (100 mg/kg). • Microbial pathogen: Aspergillus fumigatus ATCCMYA-4690 (AF293). • Collection conditions of inoculum: culture on SDA culture plates, incubate at 25° C. for at least 7 days, collect with PBS+0.1% Tween 20, and count microscopically; • Inoculation level, route and volume: 3.60E+05 CFU/mouse, tail vein injection, injection volume of 100 μL/mouse; • Treatment: Treatment is started 24 hours after infection, and test compounds are dissolved in PEG400 (0.3 mg/mL), and used for administration orally to mouses at 3 mg/kg, twice daily for 6 days. The administrated mouses are observed for 8 hours.

[4] = tested on: Aspergillus fumigatus ATCCMYA-4690 (AF293); assay: Survival rate experiment II of mouse bloodstream infection model with Aspergillus fumigatus; type: in vivo; conditions: for day 7 survival rate: 3 mg/kg (bid) orally for 6 days, started 24 hours after infection; for survival time of mouses: oral, bid
Protocol: Test Case 6: Survival Rate Experiment II of Mouse Bloodstream Infection Model with Aspergillus fumigatus • Animal for experiment: male CD-1 mouse, 6-8 weeks old, 10 animals per group. • Induction of immunosuppression: the day of infection is defined as day 0, and mouses are injected intraperitoneally with corresponding doses of cyclophosphamide on day −4 (150 mg/kg), day −1 (100 mg/kg), and day 2 (100 mg/kg), respectively. • Microbial pathogen: Aspergillus fumigatus ATCCMYA-4690 (AF293). • Collection conditions of inoculum: culture on SDA culture plates, incubate at 25° C. for at least 7 days, collect with PBS+0.1% Tween 20, and count microscopically; • Inoculation level, route and volume: 3.90E+05 CFU/mouse, tail vein injection, injection volume of 100 μL/mouse; • Treatment: Treatment is started 24 hours after infection, and test compounds are dissolved in PEG400 (0.3 mg/mL), […] The administrated mouses are observed for 8 hours.

[5] = immunosuppressed male CD-1 mouse

| Structure (SMILES) | MIC [1] [µg/mL] | CLint scaled [2] [mL/min/kg] | half-life [2] [min] | Remaining, (T = 60 min) [2] [%] | survival time of mouses [3] | day 7 survival rate [3] [%] | day 7 survival rate [4, 5] [%] | survival rate ([4]; immunosuppressed male CD-1 mouse, 10 mg/kg (bid)) [%] | survival time of mouses [4, 5] | dose dependence of survival ([4]; three doses of 1 mg/kg, 3 mg/kg and 10 mg/kg) |
| --- | --- | --- | --- | --- | --- | --- | --- | --- | --- | --- |
| Cc1cc(-c2ccccc2)c(C(=O)C(=O)Nc2ccc3c(c2)C[C@H]2CN(c4ncc(F)cn4)CCN32)n1C [Example 33, (S)-2-(1,5-dimethyl-3-phenyl-1H-pyrrol-2-yl)-N-(2-(5-fluoropyrimidin-2-yl)-1,2,3,4,10,10a-hexahydropyrazino[1,2-a]indol-8-yl)-2-oxoacetamide] | 0.016 (≈ 0.0313 µM) | 25.9 | 48.2 | 43.4 | prolong the survival time | 40 | 30 | 80 | prolong the survival time | dose-dependent relationship |
| Cc1cc(-c2ccccc2)c(C(=O)C(=O)Nc2ccc(N3CCN(c4ncc(F)cn4)CC3)cc2)n1C [Example F901318, reference compound] | 0.016 (≈ 0.0321 µM) | 37.8 | 33 | 27.7 | prolong the survival time | 0 | 0 | – | prolong the survival time | – |
| Cc1cc(-c2ccccc2)c(C(=O)C(=O)Nc2cc(F)c3c(c2)OC[C@H]2CN(c4ncc(F)cn4)CCN32)n1C [Example 5] | 0.016 (≈ 0.0294 µM) | 48.8 | 25.6 | 20.4 | – | 0 | – | – | – | – |
